The text below walks through data of ChEMBL document CHEMBL4321837, “Discovery of Potent and Orally Effective Dual Janus Kinase 2/FLT3 Inhibitors for the Treatment of Acute Myelogenous Leukemia and Myeloproliferative Neoplasms” (J Med Chem, 2019).

Series [1] concerns SET-2. The experiment in a line: Antiproliferative activity against human SET2 cells overexpressing JAK2 […] mutant assessed as reduction in cell growth after 72 hrs by MTT assay. In kind it is functional, cell-based. Particulars: SET-2, 72 h. In general terms: Formazan colour is commonly taken as a measure of viable cells.
The nature of series [2]: Anti-myelofibrosis activity against mouse BAF3(transformed) cells harboring with JAK2 V617F mutant allografted in NOD/SCID mouse assessed as reduction in liver weight at 60 mg/kg, po qd for 20 days measured on day 25 relative to control. The format is functional.
Series [3] can be described thus: Anti-myelofibrosis activity against mouse BAF3(transformed) cells harboring with JAK2 V617F mutant allografted in NOD/SCID mouse assessed as reduction in spleen weight at 60 mg/kg, po qd for 20 days measured on day 25 relative to control. The format is functional.
Series [4] concerns the target T1, Tyrosine-protein kinase JAK1 (Homo sapiens, UniProt P23458). The experiment in a line: Inhibition of human JAK1 (866 to end residues) assessed as residual activity at 100 nM using GEEPLYWSFPAKK as substrate after 40 mins in presence of [gamma33P]-ATP by scintillation counting based radiometric assay relative to control.
The species entered for series [5] is Homo sapiens. The experiment in a line: Selectivity ratio of IC50 for inhibition of human JAK3 (781 to end residues) to inhibition of human JAK2 (808 to end residues).
Series [6] addresses T1, Tyrosine-protein kinase JAK1. The experiment in a line: Inhibition of human JAK1 (866 to end residues) GEEPLYWSFPAKK as substrate after 40 mins in presence of [gamma33P]-ATP by scintillation counting based radiometric assay.
Series [7] has as its target T2, Tyrosine-protein kinase JAK3 (Homo sapiens, UniProt P52333).
T2 sequence (P52333 whole entry): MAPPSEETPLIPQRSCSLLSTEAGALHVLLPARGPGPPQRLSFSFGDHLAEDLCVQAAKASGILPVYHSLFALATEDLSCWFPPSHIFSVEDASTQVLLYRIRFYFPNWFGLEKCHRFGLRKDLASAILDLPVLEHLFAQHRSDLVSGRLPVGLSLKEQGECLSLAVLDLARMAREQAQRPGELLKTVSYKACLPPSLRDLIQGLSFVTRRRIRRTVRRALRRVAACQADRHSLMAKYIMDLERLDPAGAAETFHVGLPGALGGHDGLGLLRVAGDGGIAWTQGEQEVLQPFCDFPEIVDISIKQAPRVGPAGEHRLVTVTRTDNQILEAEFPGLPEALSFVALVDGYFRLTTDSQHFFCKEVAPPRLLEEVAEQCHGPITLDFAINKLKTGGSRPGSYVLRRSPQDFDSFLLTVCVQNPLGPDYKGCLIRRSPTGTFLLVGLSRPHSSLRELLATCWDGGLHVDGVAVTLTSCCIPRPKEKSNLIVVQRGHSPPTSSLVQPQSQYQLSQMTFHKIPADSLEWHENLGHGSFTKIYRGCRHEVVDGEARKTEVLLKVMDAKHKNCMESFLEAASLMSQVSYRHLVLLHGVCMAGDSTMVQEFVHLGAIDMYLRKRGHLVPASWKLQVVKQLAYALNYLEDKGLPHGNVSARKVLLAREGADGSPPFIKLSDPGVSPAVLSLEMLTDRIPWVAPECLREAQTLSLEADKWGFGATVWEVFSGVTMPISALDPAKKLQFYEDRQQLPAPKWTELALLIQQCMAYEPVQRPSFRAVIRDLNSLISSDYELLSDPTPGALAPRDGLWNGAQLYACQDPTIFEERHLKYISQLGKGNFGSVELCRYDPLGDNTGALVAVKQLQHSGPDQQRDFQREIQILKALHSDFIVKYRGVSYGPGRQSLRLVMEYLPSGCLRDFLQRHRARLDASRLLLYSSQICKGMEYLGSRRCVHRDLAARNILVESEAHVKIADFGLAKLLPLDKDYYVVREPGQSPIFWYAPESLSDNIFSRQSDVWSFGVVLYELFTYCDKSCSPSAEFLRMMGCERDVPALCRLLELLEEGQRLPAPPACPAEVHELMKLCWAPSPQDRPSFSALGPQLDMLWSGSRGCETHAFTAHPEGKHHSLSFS
The experiment in a line: Inhibition of human JAK3 (781 to end residues) using GGEEEEYFELVKK as substrate after 40 mins in presence of [gamma33P]-ATP by scintillation counting based radiometric assay.

For series [8], the system named is MV4-11. The experiment in a line: Antiproliferative activity against FLT3-ITD-positive human MV4-11 cells assessed as reduction in cell growth after 72 hrs by MTT assay. In kind it is functional, cell-based. Particulars: MV4-11, 72 h.
Series [9] deals with MOLM-13. Description: Antiproliferative activity against FLT3-ITD-positive human MOLM13 cells assessed as reduction in cell growth after 72 hrs by MTT assay. The format is functional, cell-based. Particulars: MOLM-13, 72 h.
Series [10] has as its target T3, Tyrosine-protein kinase JAK2 (Homo sapiens, UniProt O60674). The experiment in a line: Inhibition of human JAK2 (808 to end residues) using KTFCGTPEYLAP as substrate after 40 mins in presence of [gamma33P]-ATP by scintillation counting based radiometric assay.
A short description of series [11]: Cmax in Sprague-Dawley rat at 5 mg/kg, po measured up to 24 hrs by LC/MS/MS analysis. The format is ADME, organism-based. The arrangement: dose 5 mg/kg, route oral. Particulars: in vivo.
Series [12] addresses Cytochrome P450 3A4 (Homo sapiens, UniProt P08684). Description: Inhibition of CYP3A4 (unknown origin). The format is ADME.
The nature of series [13]: Terminal elimination half life in Sprague-Dawley rat at 5 mg/kg, po measured up to 24 hrs by LC/MS/MS analysis. The format is ADME, organism-based. Particulars: in vivo; for half-life: Sprague-Dawley, read-out: beta t1/2 (converted).
A short description of series [14]: Oral bioavailability in Sprague-Dawley rat at 5 mg/kg measured up to 24 hrs by LC/MS/MS analysis. The format is ADME, organism-based. Particulars: in vivo.
Series [15] has as its target T3, Tyrosine-protein kinase JAK2. Description: Inhibition of human JAK2 (808 to end residues) assessed as residual activity at 100 nM using KTFCGTPEYLAP as substrate after 40 mins in presence of [gamma33P]-ATP by scintillation counting based radiometric assay relative to control.
Series [16] addresses T4, Tyrosine-protein kinase JAK3 (Homo sapiens) (UniProt P52333).
T4 sequence (whole entry): T2 sequence (P52333 whole entry)
The experiment in a line: Inhibition of human JAK3 (781 to end residues) assessed as residual activity at 100 nM using GGEEEEYFELVKK as substrate after 40 mins in presence of [gamma33P]-ATP by scintillation counting based radiometric assay relative to control.

Series [17] is described as follows: AUC (0 to t) in Sprague-Dawley rat at 5 mg/kg, po measured up to 24 hrs by LC/MS/MS analysis. In kind it is ADME, organism-based. More on the design: dose 5 mg/kg, time < 24 hr, route oral. Particulars: in vivo; for AUC(0-t) at 24 h: Sprague-Dawley.
For series [18], the species on record is Homo sapiens. The experiment in a line: Selectivity ratio of IC50 for inhibition of human JAK1 (866 to end residues) to inhibition of human JAK2 (808 to end residues).
Series [19] is described as follows: Tmax in Sprague-Dawley rat at 5 mg/kg, po measured up to 24 hrs by LC/MS/MS analysis. Particulars: in vivo. The format is ADME, organism-based.
Series [20] deals with T5, Receptor-type tyrosine-protein kinase FLT3 (Homo sapiens, UniProt P36888).
T5 sequence (P36888 whole entry): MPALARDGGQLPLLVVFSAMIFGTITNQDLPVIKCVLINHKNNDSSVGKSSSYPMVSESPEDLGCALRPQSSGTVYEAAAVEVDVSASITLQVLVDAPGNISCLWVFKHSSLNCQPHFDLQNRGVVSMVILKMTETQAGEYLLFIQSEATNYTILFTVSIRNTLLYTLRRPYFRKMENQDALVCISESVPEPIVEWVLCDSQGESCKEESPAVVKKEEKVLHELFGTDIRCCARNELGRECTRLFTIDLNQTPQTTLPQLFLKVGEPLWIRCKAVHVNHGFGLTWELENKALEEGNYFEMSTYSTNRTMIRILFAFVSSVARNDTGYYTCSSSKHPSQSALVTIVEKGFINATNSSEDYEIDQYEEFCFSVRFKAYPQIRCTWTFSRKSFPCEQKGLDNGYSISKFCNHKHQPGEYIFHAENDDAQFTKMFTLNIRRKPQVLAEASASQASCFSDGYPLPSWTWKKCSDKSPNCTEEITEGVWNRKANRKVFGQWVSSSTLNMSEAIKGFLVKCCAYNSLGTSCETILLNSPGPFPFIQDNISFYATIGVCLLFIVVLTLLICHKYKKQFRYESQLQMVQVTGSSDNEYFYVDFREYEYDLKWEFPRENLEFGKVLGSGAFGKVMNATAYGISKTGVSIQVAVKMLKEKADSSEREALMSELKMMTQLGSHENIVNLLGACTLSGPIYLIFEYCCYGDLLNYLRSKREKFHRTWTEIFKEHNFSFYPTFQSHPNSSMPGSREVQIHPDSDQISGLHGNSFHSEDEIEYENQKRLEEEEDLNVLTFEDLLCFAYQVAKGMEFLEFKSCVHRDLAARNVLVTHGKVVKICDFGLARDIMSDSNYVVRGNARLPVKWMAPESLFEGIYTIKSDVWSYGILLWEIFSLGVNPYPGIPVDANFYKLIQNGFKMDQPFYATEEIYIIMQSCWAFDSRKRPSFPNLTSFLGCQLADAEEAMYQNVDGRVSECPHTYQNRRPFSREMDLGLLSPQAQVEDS
The experiment in a line: Inhibition of human FLT3 (564 to end residues) using EAIYAAPFAKKK as substrate after 40 mins in presence of [gamma33P]-ATP by scintillation counting based radiometric assay.

The target in series [21] is Receptor-type tyrosine-protein kinase FLT3 (Homo sapiens) (UniProt P36888). Description: Inhibition of human FLT3 (564 to end residues) assessed as residual activity at 100 nM using EAIYAAPFAKKK as substrate after 40 mins in presence of [gamma33P]-ATP by scintillation counting based radiometric assay relative to control.

Structures are written as SMILES. Where only a bound is given, the exact number is not on record here.

Cytochrome P450 3A4, sequence (P08684 whole entry): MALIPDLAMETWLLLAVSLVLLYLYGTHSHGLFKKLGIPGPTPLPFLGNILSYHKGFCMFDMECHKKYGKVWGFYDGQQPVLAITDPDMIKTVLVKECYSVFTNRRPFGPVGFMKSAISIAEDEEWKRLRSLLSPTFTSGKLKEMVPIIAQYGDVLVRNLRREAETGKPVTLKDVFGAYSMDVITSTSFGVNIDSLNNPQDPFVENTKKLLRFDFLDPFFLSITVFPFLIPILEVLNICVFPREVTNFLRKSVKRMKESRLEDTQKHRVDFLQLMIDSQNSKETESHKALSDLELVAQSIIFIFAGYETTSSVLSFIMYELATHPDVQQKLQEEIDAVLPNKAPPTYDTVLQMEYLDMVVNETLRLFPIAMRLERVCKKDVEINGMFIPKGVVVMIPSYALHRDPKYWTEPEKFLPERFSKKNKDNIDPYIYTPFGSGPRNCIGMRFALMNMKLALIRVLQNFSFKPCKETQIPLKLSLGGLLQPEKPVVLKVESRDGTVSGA
T3 sequence (O60674 whole entry): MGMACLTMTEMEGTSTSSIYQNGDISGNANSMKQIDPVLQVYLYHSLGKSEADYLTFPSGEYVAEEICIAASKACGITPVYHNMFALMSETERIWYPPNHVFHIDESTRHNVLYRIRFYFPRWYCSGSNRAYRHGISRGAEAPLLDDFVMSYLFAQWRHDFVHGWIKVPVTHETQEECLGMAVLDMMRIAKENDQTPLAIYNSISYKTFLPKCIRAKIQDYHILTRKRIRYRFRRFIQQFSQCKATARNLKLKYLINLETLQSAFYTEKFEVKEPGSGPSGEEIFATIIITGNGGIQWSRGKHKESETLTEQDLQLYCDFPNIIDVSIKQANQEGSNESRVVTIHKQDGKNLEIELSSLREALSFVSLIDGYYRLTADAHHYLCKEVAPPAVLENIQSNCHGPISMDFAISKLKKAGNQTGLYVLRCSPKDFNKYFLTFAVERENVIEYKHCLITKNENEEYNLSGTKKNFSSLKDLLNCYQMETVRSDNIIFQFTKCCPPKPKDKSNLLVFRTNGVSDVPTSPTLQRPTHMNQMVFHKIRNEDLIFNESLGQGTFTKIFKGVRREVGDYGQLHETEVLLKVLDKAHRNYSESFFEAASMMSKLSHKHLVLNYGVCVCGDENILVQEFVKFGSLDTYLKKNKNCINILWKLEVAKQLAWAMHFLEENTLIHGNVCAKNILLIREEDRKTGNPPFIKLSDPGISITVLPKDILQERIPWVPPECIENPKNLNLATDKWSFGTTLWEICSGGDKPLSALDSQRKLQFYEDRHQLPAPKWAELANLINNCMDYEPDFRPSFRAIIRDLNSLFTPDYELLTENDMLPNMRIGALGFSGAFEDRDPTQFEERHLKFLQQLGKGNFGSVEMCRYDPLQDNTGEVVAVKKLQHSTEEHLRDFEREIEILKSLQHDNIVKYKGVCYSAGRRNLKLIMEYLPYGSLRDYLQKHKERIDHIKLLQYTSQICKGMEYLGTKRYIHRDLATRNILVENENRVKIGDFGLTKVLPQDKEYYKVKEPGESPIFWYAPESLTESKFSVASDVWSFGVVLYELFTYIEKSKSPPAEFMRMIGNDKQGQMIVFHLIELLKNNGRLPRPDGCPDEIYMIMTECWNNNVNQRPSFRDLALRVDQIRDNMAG
T1 sequence (P23458 whole entry): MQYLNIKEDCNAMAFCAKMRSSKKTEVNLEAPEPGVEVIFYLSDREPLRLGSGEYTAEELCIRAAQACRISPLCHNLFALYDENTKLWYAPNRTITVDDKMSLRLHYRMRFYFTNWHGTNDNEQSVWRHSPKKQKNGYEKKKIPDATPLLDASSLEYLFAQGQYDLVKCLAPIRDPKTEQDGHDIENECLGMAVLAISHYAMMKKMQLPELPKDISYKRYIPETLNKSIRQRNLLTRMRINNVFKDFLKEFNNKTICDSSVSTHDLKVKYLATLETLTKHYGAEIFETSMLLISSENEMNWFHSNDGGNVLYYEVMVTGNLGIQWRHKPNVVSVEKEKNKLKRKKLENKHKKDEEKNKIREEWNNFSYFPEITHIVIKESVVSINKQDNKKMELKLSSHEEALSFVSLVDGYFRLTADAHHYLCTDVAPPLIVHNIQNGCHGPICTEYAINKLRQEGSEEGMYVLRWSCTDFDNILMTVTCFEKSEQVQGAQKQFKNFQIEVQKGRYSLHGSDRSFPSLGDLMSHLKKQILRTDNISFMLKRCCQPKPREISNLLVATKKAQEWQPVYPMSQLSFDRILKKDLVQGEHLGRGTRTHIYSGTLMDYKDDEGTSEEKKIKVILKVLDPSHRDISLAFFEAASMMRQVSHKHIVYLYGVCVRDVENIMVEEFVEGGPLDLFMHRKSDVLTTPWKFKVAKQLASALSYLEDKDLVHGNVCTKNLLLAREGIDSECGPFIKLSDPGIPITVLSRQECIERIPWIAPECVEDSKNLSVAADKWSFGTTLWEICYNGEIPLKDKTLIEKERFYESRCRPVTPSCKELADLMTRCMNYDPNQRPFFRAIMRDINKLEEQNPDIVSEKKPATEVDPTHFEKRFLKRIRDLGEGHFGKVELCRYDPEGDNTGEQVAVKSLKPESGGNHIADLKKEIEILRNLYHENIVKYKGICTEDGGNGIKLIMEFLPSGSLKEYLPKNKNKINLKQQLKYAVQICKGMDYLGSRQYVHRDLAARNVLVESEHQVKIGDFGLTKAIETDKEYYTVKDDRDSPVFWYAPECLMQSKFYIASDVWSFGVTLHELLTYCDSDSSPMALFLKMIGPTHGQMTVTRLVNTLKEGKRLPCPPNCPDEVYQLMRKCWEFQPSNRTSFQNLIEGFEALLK

One may read the IC50 as the midpoint of a concentration-inhibition curve. Consider `C1=N/C2=N/c3ccc(OCCN4CCCC4)c(c3)COC/C=C/COCc3cccc(c3)C(=C1)N2` [PACRITINIB], for which the IC50 in [1] came out at 916 nM.

As a reminder, the inhibition in vivo is the relative decrease from the control value, in per cent. `Cc1cnc(Nc2ccc(OCCN3CCCC3)cc2)nc1Nc1cccc(S(=O)(=O)NC(C)(C)C)c1` [FEDRATINIB]: the inhibition in vivo at 60 mg/kg is 69.8% in series [2] and 24.7% in series [3].

As a reminder, the Cmax is the highest concentration seen after dosing. What is called bioavailability is the share of a dose that reaches the circulation, judged against a reference dose that is usually intravenous. High values mean good availability, low ones poor availability. A word on the AUC(0-t): it is the area under the concentration-time curve up to a stated or last time point. A word on the Tmax: it is the time from dosing to the highest level. In the case of `Cc1cnc(Nc2ccc(N3CCC(N(C)CCCO)CC3)c(F)c2)nc1-c1cnn(C(C)C)c1`, the Activity in [4] stood at 22%; in [15], 5%; in [16], 31%; in [21], 7%. In addition, the values for the Ratio IC50 in series [5] and in series [18] were 23 and 47, respectively. The half-inhibitory concentration (IC50) in [6] is 47 nM; in series [7], 23 nM; in series [8] it was 8.3 nM; in [9], 82 nM; in series [10] it was 1 nM; in series [12], above 100000 nM. In [20], the IC50 stood at 9 nM. Further, the peak concentration (Cmax) in series [11] (Sprague-Dawley, read-out: Cmax) was determined as 88.9 ng/mL. Moreover, the half-life in series [13] is 7.8 h. Further, the bioavailability in series [14] was found to be 43%. In series [17], the AUC(0-t) at 24 h was found to be 1510 ng·h/mL. Moreover, the time of peak concentration (Tmax) in series [19] (Sprague-Dawley, read-out: Tmax) was determined as 4.1 h.

For `CCCCN(C)C1CCN(c2ccc(Nc3ncc(C)c(-c4cnn(C(C)C)c4)n3)cc2F)CC1`, the Activity stood at 27% in series [4], 4% in [15], 33% in [16] and 7% in series [21]. The values for the Ratio IC50 in series [5] and in series [18] were 19 and 38, respectively. Further, the 50% inhibitory concentration (IC50) is 76 nM in series [6]; 39 nM in [7]; 6.4 nM in [8]; 24 nM in series [9]; 2 nM in series [10]; above 100000 nM in [12]. In addition, the IC50 in series [20] came to 15 nM. In [11] (Sprague-Dawley, read-out: Cmax), the Cmax amounted to 56.5 ng/mL. Besides, the half-life in series [13] is 5.9 h. The compound further had a bioavailability in series [14] of 31%. In series [17], this compound yielded an AUC(0-t) at 24 h of 305 ng·h/mL. In addition, the time to peak (Tmax) in series [19] (Sprague-Dawley, read-out: Tmax) was found to be 2.3 h.

For `Cc1cnc(Nc2ccc(N3CCC(N(C)CCN4CCN(C)CC4)CC3)c(F)c2)nc1-c1cnn(C(C)C)c1`, the Activity in [4] came to 24%; in series [15] it was 5%; in series [16] it was 44%; in series [21], 5%. The Ratio IC50 in series [5] amounted to 34; in [18], 40. The IC50 is 121 nM in series [6]; 103 nM in series [7]; 4.3 nM in series [8]; 50 nM in series [9]; 3 nM in series [10]; above 100000 nM in series [12]. For the same compound, the IC50 in series [20] was 11 nM. In addition, the highest concentration (Cmax) in series [11] (24 h) was 2.3 ng/mL. For the same compound, the “beta t1/2” value in series [13] (24 h) is 16 h. In addition, the bioavailability in [14] was 45%. In [17] (24 h), this compound had an AUCt of 2265 ng·h/mL. Besides, the Tmax in series [19] (24 h) turned out to be 2.1 h.
